Measured values as given in patent US10167300B2, “Metalloenzyme inhibitor compounds as fungicides” (priority 2014, dated 2019).
Where two headings read alike, the source gives them in different places.

Assay: Type B (low volume, EC formulation, track sprayer 200 L/ha) assay, leaf blotch of wheat, SEPTTR field isolate (FI SEPTTR)
Type: in vivo, Mycosphaerella graminicola on wheat plants (variety Yuma)
Details: Zymoseptoria tritici, 72 h, field isolate, low volume EC, 100 g/ha, wheat (Yuma)
Protocol: Example A: Evaluation of Fungicidal Activity: Leaf Blotch of Wheat (Mycosphaerella graminicola; Anamorph: Septoria tritici; Bayer Code SEPTTR)
For Type A assays, technical grades of the experimental fungicides in Table 4 below were dissolved in acetone, and then mixed with nine volumes of water containing 110 ppm Triton X-100. The fungicide solutions were applied onto wheat seedlings using an automated booth sprayer. For Type B assays, emulsifiable concentrate (EC) formulations of technical grades of the experimental fungicides in Table 4 below were prepared at 10% (w/v), and then mixed with 150 volumes of 0.1% Trycol 5941. These solutions were applied onto wheat seedlings using an automated track sprayer at 200 L/ha. All sprayed plants were allowed to air dry prior to further handling.
Wheat plants (variety Yuma) were grown from seed in a greenhouse in 50% mineral soil/50% soil-less Metro mix until the first leaf was fully emerged, with 7-10 seedlings per pot. Prior to or after application of experimental fungicides, plants were inoculated either with spores of a standard laboratory SEPTTR isolate (SI SEPTTR) or with spores from a SEPTTR field isolate collected from Wellsbourne, England in 2012 (FI SEPTTR). After inoculation the plants were kept for 3 days at 20° C. in 100% relative humidity (one day in a dark dew chamber followed by two days in a lighted dew chamber). Plants were then transferred to a 20° C. greenhouse for disease development. When disease symptoms were fully expressed on untreated plants, infection levels on treated plants were assessed on a scale of 0 to 100 percent disease severity. Percent disease control was calculated using the ratio of disease severity on treated plants relative to untreated plants.

[1] = 3 Day Curative, read-out: Disease Control, FI SEPTTR Type B Assay (100 g/ha) 3 DC
[2] = 3 Day Protectant, read-out: Disease Control, FI SEPTTR Type B Assay (100 g/ha) 3 DP

| Compound | pest or weed control at 100 g/ha [1] | pest or weed control at 100 g/ha [2] |
| --- | --- | --- |
| CO/N=C(/C)c1ccc(-c2ccc(C(O)(c3cncnc3)C(C)(C)C)nc2)cc1 (centres unmarked) [Compound 132, (Z)-1-(4-(6-(1-hydroxy-2,2-dimethyl-1-(pyrimidin-5-yl)propyl)pyridin-3-yl)phenyl)ethanone O-methyl oxime] | 80 to 100% | 80 to 100% |
| CC(C)(C)C(O)(c1cncnc1)c1ccc(-c2ccc(F)cc2F)cn1 (centres unmarked) [Compound 164] | 80 to 100% | 80 to 100% |
| CC(C)(C)C(O)(c1cncnc1)c1ccc(-c2ccc(I)cc2)cn1 (centres unmarked) [Compound 165, 1-(5-(4-iodophenyl)pyridin-2-yl)-2,2-dimethyl-1-(pyrimidin-5-yl)propan-1-ol] | 80 to 100% | 80 to 100% |
| CC(C)(C)C(O)(c1cncnc1)c1ccc(-c2ccc(F)cc2Cl)cn1 (centres unmarked) [Compound 166] | 80 to 100% | 80 to 100% |
| COC(c1cncnc1)(c1ccc(-c2ccc(OC(F)(F)F)cn2)cn1)C(C)(C)C (centres unmarked) [Compound 173] | 80 to 100% | 80 to 100% |
| CC(C)(C)C(O)(c1ccc(-c2ccc(OC(F)(F)F)cn2)cn1)c1cnccn1 (centres unmarked) [Compound 174] | 60 to 79% | 80 to 100% |
| CC(C)(C#N)c1ccc(-c2ccc(C(O)(c3cncnc3)C(C)(C)C)nc2)c(C#N)c1 (centres unmarked) [Compound 175, 5-(2-cyanopropan-2-yl)-2-(6-(1-hydroxy-2,2-dimethyl-1-(pyrimidin-5-yl)propyl)pyridin-3-yl)benzonitrile] | 80 to 100% | 80 to 100% |
| CCOC(c1cncnc1)(c1ccc(-c2ccc(OC(F)(F)F)cc2F)cn1)C(C)C (centres unmarked) [Compound 176] | < 40% | 60 to 79% |
| CCOC(C)(c1cncnc1)c1ccc(-c2ccc(OC(F)(F)F)cc2)cn1 (centres unmarked) [Compound 177] | < 40% | 60 to 79% |
| CC(C)(C)C(O)(Cc1cncnc1)c1ccc(-c2ccc(C3(C#N)CC3)cc2)cn1 (centres unmarked) [Compound 178] | < 40% | 60 to 79% |
| CCc1cc(C(C)(C)C#N)ccc1-c1ccc(C(O)(c2cncnc2)C(C)(C)C)nc1 (centres unmarked) [Compound 179] | 80 to 100% | 80 to 100% |
| CC(C)(C)C(O)(c1ccc(-c2ccc(OCC(F)(F)F)nc2)cn1)c1cnccn1 (centres unmarked) [Compound 180] | 60 to 79% | 40 to 59% |
| CC(C)(C)c1ccc(-c2ccc(C(O)(Cc3cncnc3)C(C)(C)C)nc2)cc1 (centres unmarked) [Compound 181] | < 40% | 60 to 79% |
| CC#CC(OC)(c1cncnc1)c1ccc(-c2ccc(OC(F)(F)F)cc2F)cn1 (centres unmarked) [Compound 182] | < 40% | 60 to 79% |
| CC(C)(C#N)c1ccc(-c2ccc(C(O)(c3cncnc3)C(C)(C)C)nc2)nc1 (centres unmarked) [Compound 183] | 80 to 100% | 80 to 100% |
| OC(c1cncnc1)(c1ccc(-c2ccc(OC(F)(F)F)cc2F)cn1)C1CC1 (centres unmarked) [Compound 184] | < 40% | 40 to 59% |
| CC#CC(O)(c1cncnc1)c1ccc(-c2ccc(OC(F)(F)F)cc2F)cn1 (centres unmarked) [Compound 185] | < 40% | 80 to 100% |
| COc1ncncc1C(O)(c1ccc(-c2ccc(OCC(F)(F)F)cn2)cn1)C(C)(C)C (centres unmarked) [Compound 186] | 40 to 59% | 80 to 100% |
| COc1ncncc1C(O)(c1ccc(-c2ccc(OC(F)(F)F)cc2F)cn1)C(C)(C)C (centres unmarked) [Compound 187] | 80 to 100% | 80 to 100% |
| CC(C)(C#N)c1ccc(-c2ccc(C(O)(c3cnccn3)C(C)(C)C)nc2)cc1 (centres unmarked) [Compound 188] | 60 to 79% | 80 to 100% |

| Compound | pest or weed control at 100 g/ha [1] | pest or weed control at 100 g/ha [2] |
| --- | --- | --- |
| C#CCOC(c1cncnc1)(c1ccc(-c2ccc(OC(F)(F)F)cc2F)cn1)C(C)(C)C (centres unmarked) [Compound 189] | 40 to 59% | 80 to 100% |
| CCOC(CC)(c1cncnc1)c1ccc(-c2ccc(OC(F)(F)F)cc2F)cn1 (centres unmarked) [Compound 190] | 60 to 79% | 40 to 59% |
| C#CCOC(c1cncnc1)(c1ccc(-c2ccc(OC(F)(F)F)cc2F)cn1)C(C)C (centres unmarked) [Compound 191] | < 40% | 80 to 100% |
| COC(c1cncnc1)(c1ccc(-c2ccc(C3(C#N)CC3)cc2)cn1)C(C)(C)C (centres unmarked) [Compound 192] | 80 to 100% | 80 to 100% |
| COC(c1cncnc1)(c1ccc(-c2ccc(OC(F)(F)F)cc2)cn1)C(C)C (centres unmarked) [Compound 194] | < 40% | 80 to 100% |
| CC(C)(C)C(O)(Cc1cncnc1)c1ccc(-c2ccc(OCC(F)(F)F)nc2)cn1 (centres unmarked) [Compound 195] | < 40% | 40 to 59% |
| C#CCOC(c1cncnc1)(c1ccc(-c2ccc(OC(F)(F)F)cc2)cn1)C(C)(C)C (centres unmarked) [Compound 197] | < 40% | 80 to 100% |
| CCOC(c1cncnc1)(c1ccc(-c2ccc(OC(F)(F)F)cc2)cn1)C(C)(C)C (centres unmarked) [Compound 198] | < 40% | 80 to 100% |
| COC(c1cncnc1)(c1ccc(-c2ccc(OC(F)(F)F)cc2F)cn1)C1CC1 (centres unmarked) [Compound 200] | < 40% | 80 to 100% |
| CC(C)(C)c1ccc(-c2ccc(C(O)(Cc3cccnc3)C(C)(C)C)nc2)cc1 (centres unmarked) [Compound 201] | 60 to 79% | 80 to 100% |
| CC(C)(C)C(O)(c1cncc(F)c1)c1ccc(-c2ccc(OC(F)(F)F)cc2)cn1 (centres unmarked) [Compound 202] | 60 to 79% | 60 to 79% |
| COc1ncncc1C(O)(c1ccc(-c2ccc(OCC(F)(F)F)cc2)cn1)C(C)(C)C (centres unmarked) [Compound 203] | 40 to 59% | 80 to 100% |
| CC#CC(OCC)(c1cncnc1)c1ccc(-c2ccc(OC(F)(F)F)cc2F)cn1 (centres unmarked) [Compound 204] | < 40% | 60 to 79% |
| CCC(O)(c1cncnc1)c1ccc(-c2ccc(OC(F)(F)F)cc2F)cn1 (centres unmarked) [Compound 205] | 40 to 59% | 80 to 100% |
| COC(C)(c1cncnc1)c1ccc(-c2ccc(OC(F)(F)F)cc2F)cn1 (centres unmarked) [Compound 206] | < 40% | 40 to 59% |
| CC(C)(C)C(O)(c1ccc(-c2ccc(OC(F)(F)F)cc2)cn1)c1cnccn1 (centres unmarked) [Compound 207] | 40 to 59% | 60 to 79% |
| CC(C)(C)C(O)(c1cncnc1)c1ccc(-c2c(F)cc(OC(F)(F)F)cc2F)cn1 (centres unmarked) [Compound 210] | 80 to 100% | 80 to 100% |
| COC(c1cncnc1)(c1ccc(-c2ccc(OC(F)(F)F)cc2F)cn1)C(C)(C)C (centres unmarked) [Compound 211] | 80 to 100% | 80 to 100% |
| Cc1cc(C2(C#N)CCC2)ccc1-c1ccc(C(O)(c2cncnc2)C(C)(C)C)nc1 (centres unmarked) [Compound 212] | 80 to 100% | 80 to 100% |
| CCC(OC)(c1cncnc1)c1ccc(-c2ccc(OC(F)(F)F)cc2)cn1 (centres unmarked) [Compound 213] | 60 to 79% | 60 to 79% |
